Laboratory results: the NIST ThermoML archive (doi:10.1016/j.jct.2014.04.016)
Several values for one entry are separate records, joined by “and”; a condition that tells them apart may be missing. Equal entries are not always repeated.

Assay: xn = mol fraction of the nth substance listed
Settings: 100 kPa; for electrical conductivity: Alternating current cell with electrodes; for viscosity: Concentric cylinders viscometry; for mass density: Vibrating tube method

CCCCCCCCOS(=O)(=O)[O-].CCn1cc[n+](C)c1 [1-ethyl-3-methylimidazolium octyl sulfate] + O
Settings	electrical conductivity	mass density	viscosity
287.1 K, Liquid, x1 = 0.1402	–	1076.8 kg/m3	–
287.1 K, Liquid, x1 = 0.1605	–	1079.2 kg/m3	–
287.1 K, Liquid, x1 = 0.2632	–	1088.7 kg/m3	–
287.1 K, Liquid, x1 = 0.3076	0.375 S/m and 0.377 S/m	1091.2 kg/m3	169.3 mPa·s
287.6 K, Glass, x1 = 0.2632	0.469 S/m	–	10720 mPa·s and 11920 mPa·s
287.6 K, Liquid, x1 = 0.2632	–	1088.5 kg/m3 and 1088.8 kg/m3	–
288.1 K, Glass, x1 = 0.1402	–	–	1042 mPa·s
288.1 K, Glass, x1 = 0.1605	–	–	13780 mPa·s and 15800 mPa·s
288.1 K, Glass, x1 = 0.1766	0.844 S/m and 0.846 S/m	–	–
288.1 K, Glass, x1 = 0.2119	0.682 S/m and 0.681 S/m	–	–
288.1 K, Glass, x1 = 0.2632	0.48 S/m and 0.478 S/m	–	8600 mPa·s
288.1 K, Liquid, x1 = 0.0401	1.7 S/m	–	–
288.1 K, Liquid, x1 = 0.0586	1.67 S/m	–	–
288.1 K, Liquid, x1 = 0.0803	1.51 S/m	–	–
288.1 K, Liquid, x1 = 0.1197	–	1072.5 kg/m3	78.76 mPa·s
288.1 K, Liquid, x1 = 0.1402	1.03 S/m	1076 kg/m3	–
288.1 K, Liquid, x1 = 0.1605	0.932 S/m and 0.934 S/m	1078.8 kg/m3 and 1078.7 kg/m3	–
288.1 K, Liquid, x1 = 0.2632	–	1088.3 kg/m3	–
288.1 K, Liquid, x1 = 0.3076	0.389 S/m and 0.388 S/m	1090.5 kg/m3	159.4 mPa·s
288.1 K, Liquid, x1 = 0.3555	0.293 S/m and 0.294 S/m	1092.7 kg/m3	183.7 mPa·s
288.1 K, Liquid, x1 = 0.4108	0.24 S/m and 0.237 S/m	1094.5 kg/m3	206.8 mPa·s
288.1 K, Liquid, x1 = 0.4688	0.166 S/m and 0.159 S/m	–	–
288.1 K, Liquid, x1 = 0.5001	0.15 S/m	–	–
288.6 K, Glass, x1 = 0.2632	0.485 S/m	–	–
289.1 K, Glass, x1 = 0.1402	–	–	396.1 mPa·s
289.1 K, Glass, x1 = 0.1605	–	–	8364 mPa·s and 8406 mPa·s
289.1 K, Glass, x1 = 0.1766	0.868 S/m and 0.871 S/m	–	–
289.1 K, Glass, x1 = 0.2632	0.489 S/m	–	3435 mPa·s
289.1 K, Liquid, x1 = 0.1197	1.21 S/m	–	–
289.1 K, Liquid, x1 = 0.1402	1.06 S/m	1074.9 kg/m3	–
289.1 K, Liquid, x1 = 0.1605	0.964 S/m and 0.963 S/m	1078.4 kg/m3	–
289.1 K, Liquid, x1 = 0.2632	0.494 S/m	1087.8 kg/m3	–
289.1 K, Liquid, x1 = 0.3076	–	1089.8 kg/m3	150 mPa·s
289.6 K, Glass, x1 = 0.2632	–	–	1082 mPa·s
289.6 K, Liquid, x1 = 0.2632	0.503 S/m	1087.9 kg/m3	–
290.1 K, Glass, x1 = 0.1402	–	–	213.6 mPa·s
290.1 K, Glass, x1 = 0.1605	–	–	5299 mPa·s and 4500 mPa·s
290.1 K, Glass, x1 = 0.1766	0.895 S/m and 0.899 S/m	–	–
290.1 K, Glass, x1 = 0.2119	0.728 S/m	–	–
290.1 K, Liquid, x1 = 0.1402	–	1074.2 kg/m3	–
290.1 K, Liquid, x1 = 0.1605	–	1077.9 kg/m3 and 1078 kg/m3	–
290.1 K, Liquid, x1 = 0.2632	0.511 S/m	–	–
290.1 K, Liquid, x1 = 0.3076	–	1089.1 kg/m3	141.3 mPa·s
291.1 K, Glass, x1 = 0.1402	–	–	122.8 mPa·s
291.1 K, Glass, x1 = 0.1605	–	–	2756 mPa·s and 2752 mPa·s
291.1 K, Glass, x1 = 0.1766	0.924 S/m and 0.925 S/m	–	–
291.1 K, Glass, x1 = 0.2119	0.759 S/m and 0.757 S/m	–	–
291.1 K, Liquid, x1 = 0.0803	1.63 S/m	–	–
291.1 K, Liquid, x1 = 0.1402	1.12 S/m	1073.7 kg/m3	–
291.1 K, Liquid, x1 = 0.1605	1.02 S/m	1077.5 kg/m3	–
291.1 K, Liquid, x1 = 0.2632	0.527 S/m	1085.5 kg/m3	118.9 mPa·s
291.1 K, Liquid, x1 = 0.3076	0.441 S/m and 0.442 S/m	1088.1 kg/m3	133.1 mPa·s
291.1 K, Liquid, x1 = 0.3555	0.332 S/m	–	–
291.1 K, Liquid, x1 = 0.4108	0.271 S/m	–	–
291.1 K, Liquid, x1 = 0.4688	0.192 S/m	–	–
292.1 K, Glass, x1 = 0.1605	–	–	1353 mPa·s and 597.3 mPa·s
292.1 K, Glass, x1 = 0.1766	0.951 S/m and 0.953 S/m	–	–
292.1 K, Glass, x1 = 0.2119	0.779 S/m and 0.781 S/m	–	–
292.1 K, Liquid, x1 = 0.1402	–	1073.2 kg/m3	80.8 mPa·s
292.1 K, Liquid, x1 = 0.1605	–	1076.9 kg/m3 and 1076.7 kg/m3	–
292.1 K, Liquid, x1 = 0.2632	0.543 S/m	–	–
293.1 K, Glass, x1 = 0.1605	–	–	589.1 mPa·s and 232.2 mPa·s
293.1 K, Glass, x1 = 0.1766	0.977 S/m and 0.979 S/m	–	–
293.1 K, Glass, x1 = 0.2119	0.805 S/m	–	–
293.1 K, Liquid, x1 = 0.0401	1.92 S/m	–	–
293.1 K, Liquid, x1 = 0.0586	1.91 S/m	–	–
293.1 K, Liquid, x1 = 0.0803	1.72 S/m	–	–
293.1 K, Liquid, x1 = 0.1197	1.36 S/m	–	59.82 mPa·s
293.1 K, Liquid, x1 = 0.1402	1.19 S/m	–	69.89 mPa·s
293.1 K, Liquid, x1 = 0.1605	1.08 S/m	–	–
293.1 K, Liquid, x1 = 0.2119	0.804 S/m	–	–
293.1 K, Liquid, x1 = 0.2632	0.564 S/m and 0.562 S/m	–	106.4 mPa·s
293.1 K, Liquid, x1 = 0.3076	0.477 S/m and 0.479 S/m	–	117.6 mPa·s
293.1 K, Liquid, x1 = 0.3555	0.357 S/m and 0.359 S/m	–	–
293.1 K, Liquid, x1 = 0.4108	0.294 S/m and 0.293 S/m	–	–
293.1 K, Liquid, x1 = 0.4688	0.214 S/m	–	–
293.1 K, Liquid, x1 = 0.5001	0.19 S/m and 0.191 S/m	–	–
